Measurements taken from article PMC4051630, “A Comparison of Protein Kinases Inhibitor Screening Methods Using Both Enzymatic Activity and Binding Affinity Determination” (PLoS ONE, 2014).

Tests used:
Test in all cases: Differential Scanning Fluorimetry (DSF) Tm shift
Assay type in all cases: binding
[1] = target: SRC Catalytic Domain+SH2+SH3 (Homo sapiens, UniProt P12931); conditions: 2 µM protein, 10 µM inhibitor, average of 3 experiments, each in duplicate
FES Catalytic Domain+SH2 = target: T1, FES Catalytic Domain+SH2 (Homo sapiens, UniProt P07332); conditions: 2 µM protein, 10 µM inhibitor, average of 3 experiments, each in duplicate
T1 construct: for 8, we also made a longer version containing one or more additional domains; His-tag; made in house; host or cells: Escherichia coli
T1 sequence (P07332 448-822 limits assumed): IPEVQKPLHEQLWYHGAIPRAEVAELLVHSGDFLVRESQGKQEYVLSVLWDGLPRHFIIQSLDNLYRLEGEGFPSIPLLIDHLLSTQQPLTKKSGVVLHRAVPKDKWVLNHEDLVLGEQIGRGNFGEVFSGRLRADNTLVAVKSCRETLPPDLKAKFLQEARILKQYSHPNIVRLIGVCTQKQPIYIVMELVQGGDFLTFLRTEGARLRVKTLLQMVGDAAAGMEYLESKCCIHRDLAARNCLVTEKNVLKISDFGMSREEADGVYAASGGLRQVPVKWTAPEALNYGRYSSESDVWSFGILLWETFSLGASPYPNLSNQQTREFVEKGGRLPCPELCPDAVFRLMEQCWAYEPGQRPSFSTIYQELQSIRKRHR

CHK2 Catalytic Domain = target: T2, CHK2 Catalytic Domain (Homo sapiens, UniProt O96017); conditions: 2 µM protein, 10 µM inhibitor, average of 3 experiments, each in duplicate
T2 construct: For all of them, we expressed and purified the catalytic domain separately; His-tag; made in house; host or cells: Escherichia coli
T2 sequence (O96017 220-486 limits assumed): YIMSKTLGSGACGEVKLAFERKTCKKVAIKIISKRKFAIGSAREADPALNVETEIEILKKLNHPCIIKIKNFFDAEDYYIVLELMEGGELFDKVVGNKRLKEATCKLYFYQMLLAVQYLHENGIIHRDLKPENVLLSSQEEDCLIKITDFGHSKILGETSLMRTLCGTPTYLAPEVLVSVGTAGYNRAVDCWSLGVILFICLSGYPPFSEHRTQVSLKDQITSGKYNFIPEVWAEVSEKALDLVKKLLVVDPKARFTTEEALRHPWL

SRC Catalytic Domain = SRC Catalytic Domain (Homo sapiens, UniProt P12931); parameters: For all of them, we expressed and purified the catalytic domain separately; His-tag; made in house; host or cells: Escherichia coli; conditions: 2 µM protein, 10 µM inhibitor, average of 3 experiments, each in duplicate
SRC Catalytic Domain, sequence (P12931 270-523 limits assumed): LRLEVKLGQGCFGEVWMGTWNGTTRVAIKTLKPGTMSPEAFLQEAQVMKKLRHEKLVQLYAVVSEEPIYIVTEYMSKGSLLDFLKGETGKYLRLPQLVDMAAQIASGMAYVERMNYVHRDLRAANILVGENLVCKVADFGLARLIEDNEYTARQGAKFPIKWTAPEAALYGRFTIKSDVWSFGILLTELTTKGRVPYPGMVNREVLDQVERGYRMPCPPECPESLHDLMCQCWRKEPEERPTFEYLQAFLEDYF

PAK4 Catalytic Domain = target: T3, PAK4 Catalytic Domain (Homo sapiens, UniProt O96013); conditions: 2 µM protein, 10 µM inhibitor, average of 3 experiments, each in duplicate
T3 construct: For all of them, we expressed and purified the catalytic domain separately; His-tag; made in house; host or cells: Escherichia coli
T3 sequence (O96013 321-572 limits assumed): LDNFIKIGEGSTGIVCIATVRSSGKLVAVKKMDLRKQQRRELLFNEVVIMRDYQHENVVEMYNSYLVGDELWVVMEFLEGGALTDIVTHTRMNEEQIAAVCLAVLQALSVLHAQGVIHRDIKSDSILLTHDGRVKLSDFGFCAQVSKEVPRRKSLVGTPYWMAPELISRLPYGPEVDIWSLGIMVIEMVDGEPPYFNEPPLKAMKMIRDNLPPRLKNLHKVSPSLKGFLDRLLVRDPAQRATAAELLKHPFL

FES Catalytic Domain = target: T4, FES Catalytic Domain (Homo sapiens, UniProt P07332); conditions: 2 µM protein, 10 µM inhibitor, average of 3 experiments, each in duplicate
T4 construct: For all of them, we expressed and purified the catalytic domain separately; His-tag; made in house; host or cells: Escherichia coli
T4 sequence (P07332 561-822 limits assumed): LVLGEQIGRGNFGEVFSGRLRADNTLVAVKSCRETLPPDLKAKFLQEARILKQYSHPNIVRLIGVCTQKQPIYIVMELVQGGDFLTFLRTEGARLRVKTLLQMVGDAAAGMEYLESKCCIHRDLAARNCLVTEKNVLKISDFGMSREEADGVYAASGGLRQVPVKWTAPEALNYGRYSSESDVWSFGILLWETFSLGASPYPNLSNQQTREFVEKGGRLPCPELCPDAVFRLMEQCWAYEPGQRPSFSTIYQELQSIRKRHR

FAK2 Catalytic Domain = target: T5, FAK2 Catalytic Domain (Homo sapiens, UniProt Q14289); conditions: 2 µM protein, 10 µM inhibitor, average of 3 experiments, each in duplicate
T5 construct: For all of them, we expressed and purified the catalytic domain separately; His-tag; made in house; host or cells: Escherichia coli
T5 sequence (Q14289 425-683 limits assumed): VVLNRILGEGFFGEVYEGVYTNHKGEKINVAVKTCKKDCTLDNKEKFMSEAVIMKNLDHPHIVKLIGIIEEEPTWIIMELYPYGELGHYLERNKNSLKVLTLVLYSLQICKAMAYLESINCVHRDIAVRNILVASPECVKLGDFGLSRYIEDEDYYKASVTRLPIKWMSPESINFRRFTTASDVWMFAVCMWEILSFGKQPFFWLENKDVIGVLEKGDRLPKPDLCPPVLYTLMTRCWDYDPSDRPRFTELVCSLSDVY

STK3 Catalytic Domain = target: T6, STK3 Catalytic Domain (Homo sapiens, UniProt Q13188); conditions: 2 µM protein, 10 µM inhibitor, average of 3 experiments, each in duplicate
T6 construct: For all of them, we expressed and purified the catalytic domain separately; His-tag; made in house; host or cells: Escherichia coli
T6 sequence (Q13188 27-278 limits assumed): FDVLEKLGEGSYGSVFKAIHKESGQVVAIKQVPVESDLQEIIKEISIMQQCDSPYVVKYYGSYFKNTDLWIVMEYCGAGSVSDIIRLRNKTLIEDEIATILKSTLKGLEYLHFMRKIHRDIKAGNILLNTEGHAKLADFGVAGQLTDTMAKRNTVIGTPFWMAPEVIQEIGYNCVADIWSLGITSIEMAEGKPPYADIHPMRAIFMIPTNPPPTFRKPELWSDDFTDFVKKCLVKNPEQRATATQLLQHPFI

[2] = target: T7, STK3 Catalytic domain+SARAH (Homo sapiens, UniProt Q13188); conditions: 2 µM protein, 10 µM inhibitor, average of 3 experiments, each in duplicate
T7 construct: for 8, we also made a longer version containing one or more additional domains; His-tag; made in house; host or cells: Escherichia coli
T7 sequence (Q13188 1-491): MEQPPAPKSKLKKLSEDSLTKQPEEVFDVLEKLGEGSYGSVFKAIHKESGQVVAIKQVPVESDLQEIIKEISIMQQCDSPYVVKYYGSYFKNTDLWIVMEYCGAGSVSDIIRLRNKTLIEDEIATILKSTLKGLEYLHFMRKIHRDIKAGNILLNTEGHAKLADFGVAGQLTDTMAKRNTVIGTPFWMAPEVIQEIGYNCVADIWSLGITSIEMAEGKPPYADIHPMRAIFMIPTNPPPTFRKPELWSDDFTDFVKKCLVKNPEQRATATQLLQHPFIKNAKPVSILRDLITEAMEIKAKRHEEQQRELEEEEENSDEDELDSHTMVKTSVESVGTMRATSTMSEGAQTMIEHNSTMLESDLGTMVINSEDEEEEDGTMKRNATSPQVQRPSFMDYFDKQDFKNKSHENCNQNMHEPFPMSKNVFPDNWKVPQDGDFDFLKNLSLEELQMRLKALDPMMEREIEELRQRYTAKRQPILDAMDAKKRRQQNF

PAK7 Catalytic Domain = target: T8, PAK7 Catalytic Domain (Homo sapiens, UniProt Q9P286); conditions: 2 µM protein, 10 µM inhibitor, average of 3 experiments, each in duplicate
T8 construct: For all of them, we expressed and purified the catalytic domain separately; His-tag; made in house; host or cells: Escherichia coli
T8 sequence (Q9P286 449-700 limits assumed): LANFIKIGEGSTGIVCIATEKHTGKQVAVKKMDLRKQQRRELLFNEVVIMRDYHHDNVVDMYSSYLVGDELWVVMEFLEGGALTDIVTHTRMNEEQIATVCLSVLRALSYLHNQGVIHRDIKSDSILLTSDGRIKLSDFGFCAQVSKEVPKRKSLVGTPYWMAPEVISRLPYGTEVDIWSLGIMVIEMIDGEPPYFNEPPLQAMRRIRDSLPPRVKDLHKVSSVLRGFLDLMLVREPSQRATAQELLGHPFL

[3] = target: T9, PAK4 Catalytic Domain+PBD (Homo sapiens, UniProt O96013); conditions: 2 µM protein, 10 µM inhibitor, average of 3 experiments, each in duplicate
T9 construct: for 8, we also made a longer version containing one or more additional domains; His-tag; made in house; host or cells: Escherichia coli
T9 sequence (O96013 whole entry, the tested form may be a part): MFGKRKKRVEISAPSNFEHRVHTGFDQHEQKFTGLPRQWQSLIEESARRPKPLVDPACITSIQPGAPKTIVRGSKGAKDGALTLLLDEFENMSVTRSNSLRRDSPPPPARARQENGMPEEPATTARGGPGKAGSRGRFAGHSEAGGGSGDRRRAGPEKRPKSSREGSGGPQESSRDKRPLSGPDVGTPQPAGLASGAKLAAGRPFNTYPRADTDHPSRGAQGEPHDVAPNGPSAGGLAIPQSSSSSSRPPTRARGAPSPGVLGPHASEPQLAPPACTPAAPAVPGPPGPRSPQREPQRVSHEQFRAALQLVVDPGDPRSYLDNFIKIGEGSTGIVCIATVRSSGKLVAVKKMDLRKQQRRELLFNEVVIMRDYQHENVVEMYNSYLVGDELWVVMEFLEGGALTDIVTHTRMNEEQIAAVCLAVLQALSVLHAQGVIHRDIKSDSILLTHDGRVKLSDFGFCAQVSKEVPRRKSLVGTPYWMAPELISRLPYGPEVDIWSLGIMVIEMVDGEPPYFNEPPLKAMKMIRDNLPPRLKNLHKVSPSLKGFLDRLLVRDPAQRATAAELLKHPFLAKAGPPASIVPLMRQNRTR

DMPK Catalytic Domain = target: T10, DMPK Catalytic Domain (Homo sapiens, UniProt Q09013); conditions: 2 µM protein, 10 µM inhibitor, average of 3 experiments, each in duplicate
T10 construct: For all of them, we expressed and purified the catalytic domain separately; His-tag; made in house; host or cells: Escherichia coli
T10 sequence (Q09013 71-339 limits assumed): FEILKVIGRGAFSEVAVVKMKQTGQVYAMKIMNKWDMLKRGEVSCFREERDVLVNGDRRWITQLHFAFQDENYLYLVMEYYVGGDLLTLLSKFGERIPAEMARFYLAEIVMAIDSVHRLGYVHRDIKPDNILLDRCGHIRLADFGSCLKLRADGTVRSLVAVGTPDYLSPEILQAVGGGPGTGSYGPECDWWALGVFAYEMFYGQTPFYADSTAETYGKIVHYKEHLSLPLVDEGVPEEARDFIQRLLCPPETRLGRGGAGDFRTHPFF

AKT3 Catalytic Domain = target: T11, AKT3 Catalytic Domain (Homo sapiens, UniProt Q9Y243); conditions: 2 µM protein, 10 µM inhibitor, average of 3 experiments, each in duplicate
T11 construct: AKT3 (Q9Y243); CD; His-tag; made in house; host or cells: Escherichia coli
T11 sequence (Q9Y243 122-479): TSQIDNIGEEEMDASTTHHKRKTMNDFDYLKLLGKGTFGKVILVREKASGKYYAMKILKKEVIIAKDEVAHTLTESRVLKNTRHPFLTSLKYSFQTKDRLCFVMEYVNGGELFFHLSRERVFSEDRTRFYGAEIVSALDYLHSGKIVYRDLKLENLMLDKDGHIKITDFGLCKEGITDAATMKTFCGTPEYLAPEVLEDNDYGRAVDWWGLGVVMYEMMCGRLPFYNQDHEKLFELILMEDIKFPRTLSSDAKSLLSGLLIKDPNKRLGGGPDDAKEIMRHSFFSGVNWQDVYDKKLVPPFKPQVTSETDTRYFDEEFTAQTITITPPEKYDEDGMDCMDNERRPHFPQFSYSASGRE

CDK2 + Cyclin A = target: T12, CDK2 + Cyclin A (Homo sapiens, UniProt P24941); conditions: CDK2 + Cyclin A; 2 µM protein, 10 µM inhibitor; average of 3 experiments, each in duplicate
T12 construct: CDK2 (P24941); 1–299; His-tag; made in house; host or cells: Escherichia coli

SRC Catalytic Domain+SH2+SH3, sequence (P12931 84-523 limits assumed): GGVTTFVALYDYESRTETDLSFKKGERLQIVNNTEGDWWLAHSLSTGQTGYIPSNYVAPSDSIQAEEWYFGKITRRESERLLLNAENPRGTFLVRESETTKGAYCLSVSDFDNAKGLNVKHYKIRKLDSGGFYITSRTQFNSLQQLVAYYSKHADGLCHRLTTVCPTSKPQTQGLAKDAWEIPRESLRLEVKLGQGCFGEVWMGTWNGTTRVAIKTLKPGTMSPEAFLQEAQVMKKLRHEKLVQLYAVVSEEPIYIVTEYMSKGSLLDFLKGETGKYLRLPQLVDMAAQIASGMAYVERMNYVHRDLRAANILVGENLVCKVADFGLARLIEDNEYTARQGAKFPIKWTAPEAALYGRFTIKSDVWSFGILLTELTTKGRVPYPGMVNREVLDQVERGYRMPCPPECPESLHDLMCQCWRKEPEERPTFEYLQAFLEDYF

Structure (SMILES) | Melting temperature (Tm) shift [1] [degrees Celcius] | Melting temperature (Tm) shift (FES Catalytic Domain+SH2) [degrees Celcius] | Melting temperature (Tm) shift (CHK2 Catalytic Domain) [degrees Celcius] | Melting temperature (Tm) shift (SRC Catalytic Domain) [degrees Celcius] | Melting temperature (Tm) shift (PAK4 Catalytic Domain) [degrees Celcius] | Melting temperature (Tm) shift (FES Catalytic Domain) [degrees Celcius] | Melting temperature (Tm) shift (FAK2 Catalytic Domain) [degrees Celcius] | Melting temperature (Tm) shift (STK3 Catalytic Domain) [degrees Celcius] | Melting temperature (Tm) shift [2] [degrees Celcius] | Melting temperature (Tm) shift (PAK7 Catalytic Domain) [degrees Celcius] | Melting temperature (Tm) shift [3] [degrees Celcius] | Melting temperature (Tm) shift (DMPK Catalytic Domain) [degrees Celcius] | Melting temperature (Tm) shift (AKT3 Catalytic Domain) [degrees Celcius] | Melting temperature (Tm) shift (CDK2 + Cyclin A) [degrees Celcius]
CCCC(=O)Oc1ccc2[nH]c(C(=O)c3cc4ccccc4[nH]3)cc2c1 | 0.6 | 0.1 | 1.4 | 1.1 | 0.0 | 0.3 | 0.3 | 0.5 | 1.2 | 0.1 | – | – | – | –
Cc1nc(N)sc1-c1ccnc(Nc2cccc([N+](=O)[O-])c2)n1 [Cdk2/9 Inhibitor] | 0.6 | 0.1 | 1.8 | 0.5 | 0.7 | 0.3 | 0.5 | 0.7 | 0.4 | 0.3 | 2.0 | 0.4 | – | –
CN1C(=O)C(=C2Nc3ccccc3C2=NO)c2ccc(Br)cc21 [GSK-3 Inhibitor IX, Control, MeBIO] | 0.0 | – | – | 0.0 | 0.0 | – | 0.1 | 0.1 | 0.4 | 0.0 | 0.3 | – | – | –
Nc1ncnc2c1c(-c1ccc(Oc3ccccc3)cc1)cn2C1CCCC1 [Lck Inhibitor] | 6.4 | 0.3 | 2.2 | 9.4 | – | 0.7 | – | 1.3 | 0.2 | 0.0 | – | – | – | –
COc1cc2nccc(Oc3ccc(NC(=S)NC(=O)c4ccccc4C)cc3)c2cc1OC [PDGF RTK Inhibitor] | 3.9 | 1.5 | 7.6 | 5.9 | – | 1.6 | 1.0 | 1.7 | 0.0 | – | – | – | – | –
CS(=O)(=O)O.Cn1cc(C2=C(c3cn(CCCSC(=N)N)c4ccccc34)C(=O)NC2=O)c2ccccc21 [Ro-31-8220] | 0.0 | 0.8 | 6.6 | 0.2 | 1.5 | 1.0 | 0.5 | 1.8 | 2.9 | 0.9 | 1.6 | 4.8 | 1.6 | –
COc1cc2ncnc(Nc3ccc(Cl)cc3Cl)c2cc1OC [Ste11 MAPKKK Activation Inhibitor] | 0.7 | 0.1 | 10.6 | 0.5 | 0.0 | 0.1 | 0.4 | 0.3 | 0.6 | 0.0 | 0.1 | 0.4 | – | 0.1
CN[C@@H]1C[C@H]2O[C@@](C)([C@@H]1OC)n1c3ccccc3c3c4c(c5c6ccccc6n2c5c31)C(=O)N[C@@H]4O [UCN-01] | 1.2 | 1.3 | 1.7 | 0.4 | 6.2 | 5.2 | 5.9 | 7.6 | 12.7 | 7.4 | 6.8 | 5.9 | 3.2 | –
